Assay results from patent publication US20080031935A1, “Cholinesterase Inhibitors In Liposomes And Their Production And Use” (priority 2004, published 2008).

Test: Solubility of galantamine base in ethanol
Format: physicochemical

## COc1ccc2c3c1O[C@H]1C[C@@H](O)C=C[C@@]31CCN(C)C2 [galantamine base, galantamine]
  solubility in ethanol: soluble
